Experimental data taken from ChEMBL document CHEMBL3525934 (Drug Metab Dispos, 2013).

What was measured:
Type in all cases: ADME
Settings in all cases: 0.5 h
Cytochrome P450 2C8 [1] = target: T1, Cytochrome P450 2C8 (Homo sapiens, UniProt P10632); assay: Drug metabolism in supersomes expressing human recombinant CYP2C8 assessed as enzyme-mediated clozapine-N-oxide metabolite formation at 100 uM after 30 mins measured per nmol of P450 by HPLC analysis
T1 sequence (P10632 whole entry): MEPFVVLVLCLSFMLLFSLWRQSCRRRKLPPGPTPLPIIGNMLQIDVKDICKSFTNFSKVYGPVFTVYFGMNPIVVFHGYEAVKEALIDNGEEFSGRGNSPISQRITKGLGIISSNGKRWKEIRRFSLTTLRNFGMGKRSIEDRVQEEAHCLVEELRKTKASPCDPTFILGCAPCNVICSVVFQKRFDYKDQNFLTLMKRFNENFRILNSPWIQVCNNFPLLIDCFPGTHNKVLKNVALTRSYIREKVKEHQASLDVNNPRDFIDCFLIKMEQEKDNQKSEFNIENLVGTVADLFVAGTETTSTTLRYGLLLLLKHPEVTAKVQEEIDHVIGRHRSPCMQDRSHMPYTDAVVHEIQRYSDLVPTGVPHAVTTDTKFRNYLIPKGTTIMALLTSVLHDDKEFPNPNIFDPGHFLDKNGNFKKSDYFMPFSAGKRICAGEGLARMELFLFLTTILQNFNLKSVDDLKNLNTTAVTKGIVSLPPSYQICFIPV

Cytochrome P450 1A1 [2] = target: T2, Cytochrome P450 1A1 (Homo sapiens, UniProt P04798); assay: Drug metabolism in supersomes expressing human recombinant CYP1A1 assessed as enzyme-mediated N-desmethylclozapine metabolite formation at 10 uM after 30 mins measured per nmol of P450 by HPLC analysis
T2 sequence (P04798 whole entry): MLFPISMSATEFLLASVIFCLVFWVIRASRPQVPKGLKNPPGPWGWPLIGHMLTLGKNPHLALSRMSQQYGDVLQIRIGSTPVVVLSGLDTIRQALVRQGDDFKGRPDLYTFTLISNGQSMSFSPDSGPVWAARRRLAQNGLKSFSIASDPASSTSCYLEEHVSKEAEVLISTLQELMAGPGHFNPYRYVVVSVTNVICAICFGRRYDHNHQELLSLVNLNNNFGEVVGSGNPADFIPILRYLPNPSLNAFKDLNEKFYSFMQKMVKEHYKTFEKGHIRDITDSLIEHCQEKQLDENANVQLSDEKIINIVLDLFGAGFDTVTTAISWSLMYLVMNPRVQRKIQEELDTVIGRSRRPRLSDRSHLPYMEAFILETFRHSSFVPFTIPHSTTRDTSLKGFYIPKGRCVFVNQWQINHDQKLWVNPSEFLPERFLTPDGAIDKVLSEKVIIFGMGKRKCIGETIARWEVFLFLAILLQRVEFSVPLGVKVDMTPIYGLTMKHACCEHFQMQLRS

Cytochrome P450 1A2 = target: T3, Cytochrome P450 1A2 (Homo sapiens, UniProt P05177); assay: Drug metabolism in supersomes expressing human recombinant CYP1A2 assessed as enzyme-mediated cyanide adduct formation at 100 uM after 30 mins measured per nmol of P450 by HPLC analysis in presence of KCN
T3 sequence (P05177 whole entry): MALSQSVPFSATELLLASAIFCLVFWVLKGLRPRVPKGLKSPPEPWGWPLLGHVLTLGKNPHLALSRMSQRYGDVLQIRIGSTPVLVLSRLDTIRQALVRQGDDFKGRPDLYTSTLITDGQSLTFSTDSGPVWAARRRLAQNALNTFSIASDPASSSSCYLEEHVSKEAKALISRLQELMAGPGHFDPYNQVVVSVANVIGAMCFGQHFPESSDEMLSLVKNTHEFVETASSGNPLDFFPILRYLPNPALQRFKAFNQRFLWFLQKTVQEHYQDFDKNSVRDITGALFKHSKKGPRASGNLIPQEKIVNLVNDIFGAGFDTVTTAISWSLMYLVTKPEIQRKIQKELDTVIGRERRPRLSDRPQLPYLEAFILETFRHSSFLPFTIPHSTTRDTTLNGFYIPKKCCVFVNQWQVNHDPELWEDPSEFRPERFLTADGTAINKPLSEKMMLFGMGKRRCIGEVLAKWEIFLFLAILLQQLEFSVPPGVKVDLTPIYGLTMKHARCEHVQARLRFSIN

Cytochrome P450 2C9 = Cytochrome P450 2C9 (Homo sapiens, UniProt P11712); assay: Drug metabolism in supersomes expressing human recombinant CYP2C9 assessed as enzyme-mediated clozapine-N-oxide metabolite formation at 100 uM after 30 mins measured per nmol of P450 by HPLC analysis
Cytochrome P450 2C8 [3] = target: T1, Cytochrome P450 2C8; assay: Drug metabolism in supersomes expressing human recombinant CYP2C8 assessed as enzyme-mediated N-desmethylclozapine metabolite formation at 100 uM after 30 mins measured per nmol of P450 by HPLC analysis
Cytochrome P450 1A1 [4] = target: T2, Cytochrome P450 1A1; assay: Drug metabolism in supersomes expressing human recombinant CYP1A1 assessed as enzyme-mediated clozapine-N-oxide metabolite formation at 10 uM after 30 mins measured per nmol of P450 by HPLC analysis
Cytochrome P450 2D6 = Cytochrome P450 2D6 (Homo sapiens, UniProt P10635); assay: Drug metabolism in supersomes expressing human recombinant CYP2D6 assessed as enzyme-mediated total GSH conjugate formation at 10 uM after 30 mins measured per nmol of P450 by HPLC analysis in presence of GSH and hGST P1-1
Cytochrome P450 2C8 [5] = target: T1, Cytochrome P450 2C8; assay: Drug metabolism in supersomes expressing human recombinant CYP2C8 assessed as enzyme-mediated N-desmethylclozapine metabolite formation at 10 uM after 30 mins measured per nmol of P450 by HPLC analysis
Cytochrome P450 2C19 = Cytochrome P450 2C19 (Homo sapiens, UniProt P33261); assay: Drug metabolism in supersomes expressing human recombinant CYP2C19 assessed as enzyme-mediated clozapine-N-oxide metabolite formation at 100 uM after 30 mins measured per nmol of P450 by HPLC analysis
Cytochrome P450 1B1 = target: T4, Cytochrome P450 1B1 (Homo sapiens, UniProt Q16678); assay: Drug metabolism in supersomes expressing human recombinant CYP1B1 assessed as enzyme-mediated N-desmethylclozapine metabolite formation at 100 uM after 30 mins measured per nmol of P450 by HPLC analysis
T4 sequence (Q16678 whole entry): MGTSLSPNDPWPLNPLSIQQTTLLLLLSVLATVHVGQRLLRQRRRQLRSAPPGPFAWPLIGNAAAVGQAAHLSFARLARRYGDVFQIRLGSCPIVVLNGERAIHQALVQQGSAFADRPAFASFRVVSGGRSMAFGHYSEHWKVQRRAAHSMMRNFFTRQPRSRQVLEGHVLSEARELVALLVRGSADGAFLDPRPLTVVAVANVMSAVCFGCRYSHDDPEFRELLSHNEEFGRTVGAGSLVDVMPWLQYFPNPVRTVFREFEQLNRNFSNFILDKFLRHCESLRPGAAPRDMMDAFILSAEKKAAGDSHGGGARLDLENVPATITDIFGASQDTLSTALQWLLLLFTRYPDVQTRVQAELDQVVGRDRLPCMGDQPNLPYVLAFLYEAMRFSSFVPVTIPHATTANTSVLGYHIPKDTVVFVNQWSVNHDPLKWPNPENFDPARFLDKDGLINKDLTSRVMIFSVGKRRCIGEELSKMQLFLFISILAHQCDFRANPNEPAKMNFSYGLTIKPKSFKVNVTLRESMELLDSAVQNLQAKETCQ

Chain of Cytochrome P450 2C19 (P33261 whole entry): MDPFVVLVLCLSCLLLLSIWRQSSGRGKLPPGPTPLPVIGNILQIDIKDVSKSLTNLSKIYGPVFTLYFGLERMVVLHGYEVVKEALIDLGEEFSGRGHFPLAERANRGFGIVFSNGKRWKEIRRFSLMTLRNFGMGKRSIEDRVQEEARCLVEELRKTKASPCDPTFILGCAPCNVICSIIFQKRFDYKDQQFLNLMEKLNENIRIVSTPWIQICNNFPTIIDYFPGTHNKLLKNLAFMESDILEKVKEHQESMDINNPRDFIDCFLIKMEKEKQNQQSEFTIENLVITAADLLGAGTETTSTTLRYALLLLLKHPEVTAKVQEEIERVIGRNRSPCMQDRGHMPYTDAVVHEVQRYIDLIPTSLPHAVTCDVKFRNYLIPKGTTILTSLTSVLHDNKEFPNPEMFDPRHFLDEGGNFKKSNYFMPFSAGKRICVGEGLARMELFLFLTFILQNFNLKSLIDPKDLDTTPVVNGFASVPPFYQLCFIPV
Chain of Cytochrome P450 2C9 (P11712 whole entry): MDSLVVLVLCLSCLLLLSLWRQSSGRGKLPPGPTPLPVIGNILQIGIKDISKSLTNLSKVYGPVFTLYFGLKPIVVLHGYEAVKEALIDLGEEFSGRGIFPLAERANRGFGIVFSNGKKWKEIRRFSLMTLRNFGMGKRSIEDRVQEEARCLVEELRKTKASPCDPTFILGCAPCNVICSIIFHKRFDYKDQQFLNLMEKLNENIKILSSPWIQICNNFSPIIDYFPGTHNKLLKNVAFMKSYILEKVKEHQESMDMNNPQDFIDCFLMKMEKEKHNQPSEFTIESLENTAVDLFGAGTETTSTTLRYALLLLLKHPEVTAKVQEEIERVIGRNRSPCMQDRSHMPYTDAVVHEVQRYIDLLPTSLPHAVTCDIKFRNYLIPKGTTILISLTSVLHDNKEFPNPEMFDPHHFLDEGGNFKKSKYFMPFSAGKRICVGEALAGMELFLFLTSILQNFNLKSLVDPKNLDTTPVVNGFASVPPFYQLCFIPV
Chain of Cytochrome P450 2D6 (P10635 whole entry): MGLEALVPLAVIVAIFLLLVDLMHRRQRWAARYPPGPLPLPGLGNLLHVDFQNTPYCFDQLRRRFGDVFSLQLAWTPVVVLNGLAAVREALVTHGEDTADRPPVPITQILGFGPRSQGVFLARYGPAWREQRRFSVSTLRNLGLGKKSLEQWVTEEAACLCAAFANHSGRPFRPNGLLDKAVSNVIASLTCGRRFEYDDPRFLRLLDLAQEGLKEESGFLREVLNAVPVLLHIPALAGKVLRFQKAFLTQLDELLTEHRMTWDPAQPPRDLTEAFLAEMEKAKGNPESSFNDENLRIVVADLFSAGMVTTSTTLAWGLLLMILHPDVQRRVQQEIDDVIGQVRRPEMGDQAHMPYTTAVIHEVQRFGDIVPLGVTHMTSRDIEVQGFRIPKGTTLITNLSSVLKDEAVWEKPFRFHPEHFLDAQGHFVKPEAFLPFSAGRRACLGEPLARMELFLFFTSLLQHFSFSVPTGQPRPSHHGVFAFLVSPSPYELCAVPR

For `CN1CCN(C2=Nc3cc(Cl)ccc3Nc3ccccc32)CC1` [CLOZAPINE], the Drug metabolism (Cytochrome P450 2C8 [1]) was 0.075 nmol/min/nmol P450, the Drug metabolism (Cytochrome P450 1A1 [2]) was 0.64 nmol/min and the Drug metabolism (Cytochrome P450 1A2) was 0.2 nmol/min. It also gave a Drug metabolism (Cytochrome P450 2C9) of 0.057 nmol/min, a Drug metabolism (Cytochrome P450 2C8 [3]) of 0.89 nmol/min and a Drug metabolism (Cytochrome P450 1A1 [4]) of 0.24 nmol/min. It also gave a Drug metabolism (Cytochrome P450 2D6) of 0.47 nmol/min, a Drug metabolism (Cytochrome P450 2C8 [5]) of 0.92 nmol/min and a Drug metabolism (Cytochrome P450 2C19) of 0.58 nmol/min/nmol P450. It also gave a Drug metabolism (Cytochrome P450 1B1) of 0.94 nmol/min.
